Experimental data reported in patent US8916526B2, “Flavanone derivative” (National University Corporation Okayama University, priority 2009, dated 2014).
pIC50: −log10 of the molar value. ≈ marks a conversion by molar mass, not a printed value.

Legend:
[1] = target: T1, Escherichia coli Topoisomerase IV (Escherichia coli, UniProt P0AFI2+P20083); experiment: Topoisomerase IV inhibition (decatenation kit), Exp. Ex. 2-3; format: biochemical; conditions: decatenation of kDNA, 37° C., 30 minutes; read-out: IC50 (E. coli topoisomerase IV inhibitions)
T1 construct: purchased John Innes Enterprises
In short: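 Decatenation of 200 ng kinetoplast DNA by 1 unit enzyme, 30 min at 37 °C. S. aureus: 50 mM Tris-HCl pH 7.5, 350 mM potassium glutamate, 1.5 mM ATP; E. coli: 50 mM HEPES-KOH pH 7.6, 100 mM potassium glutamate, 1 mM ATP. Products resolved on 1.0% agarose in TAE.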

Escherichia coli K-12 = experiment: Antibacterial activity (MIC) against Gram-negative strains, microdilution; format: cell-based; conditions: K12, MIC after 24 h, read-out: MIC (Gram-nagative) K-12
In short: (§1)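 CLSI broth microdilution in Mueller-Hinton broth with 0.85% NaCl, inoculum about 10^5 […]. Incubated 35° C for 24 hours; MIC taken as the minimum inhibitory concentration, measured three times.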

[2] = test system: Pseodomonas aeruginosa PAOI; experiment: as above; format: cell-based; conditions: MIC after 24 h, read-out: MIC (Gram-nagative) PAO1
In short: as §1

[3] = test system: Vancomycin-resistant enterococci FN-1; experiment: In vitro infectivity assay (MIC), Exp. Ex. 2-1; format: cell-based; conditions: Enterococcus, VRE; Gram-positive; microdilution, MIC after 24 h; read-out: MIC VRE FN-1
In short: (§2)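 CLSI broth dilution; Mueller-Hinton + 0.85% NaCl; inoculum ~10^5 CUF/[…]; 35° C, 24 h; MIC read, n=3.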

[4] = test system: Vancomycin intermediate-resistant Staphylococcus aureus Mu50; experiment: In vitro infectivity assay (MIC), Exp. Ex. 2-1; format: cell-based; conditions: Staphylococcus aureus, VISA; Gram-positive; microdilution, MIC after 24 h; read-out: MIC VISA Mu50
In short: as §2

[5] = test system: Vancomycin-resistant enterococci NCTC 12201; experiment: In vitro infectivity assay (MIC), Exp. Ex. 2-1; format: cell-based; conditions: Enterococcus, NCTC 12201 / VRE; Gram-positive; microdilution, MIC after 24 h; read-out: MIC VRE NCTC 12201
In short: as §2

E. coli DNA gyrase = target: T2, E. coli DNA gyrase (Escherichia coli, UniProt P0AES4+P0AES6); experiment: DNA gyrase inhibition (supercoiling kit), Exp. Ex. 2-2; format: biochemical
T2 construct: purchased John Innes Enterprises #K0001
In short: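 Supercoiling of relaxed pBR322 DNA ([…]) by 1 U E. coli gyrase, 37° C for 30 minutes, in 35 mM Tris-HCl pH 7.5 with 1 mM ATP, 4 mM MgCl2, 24 mM KCl, spermidine and DTT. Products resolved by electrophoresis to derive IC50.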

MRSA OM58 = experiment: In vitro infectivity assay (MIC), broth dilution, Exp. Ex. 1-1; format: cell-based, Staphylococcus aureus; conditions: Staphylococcus aureus; MRSA OM58; Mueller-Hinton broth, 35° C., 24 hours; read-out: MIC MRSA OM58
Experimental: (§3) The antibacterial activities were measured based on broth dilution techniques of international standards (Clinical Laboratory Standards Institute: CLSI). The activities were shown by minimum inhibitory concentrations (MICs) determined by inoculating the above-mentioned strains at a concentration of about 10^5 […] into Mueller-Hinton broth (manufactured by Difco) containing 0.85% NaCl in 96-well microplates and incubating the plates at 35° C. for 24 hours. Measurement was carried out three times.
(§4) The antibacterial activities of the compounds of the present invention against various strains such as methicillin-resistant Staphylococcus aureus (MRSA), vancomycin intermediate-resistant Staphylococcus aureus (VISA), methicillin-sensitive Staphylococcus aureus (MSSA), and vancomycin-resistant enterococci (VRE) were examined. Of the bacteria used in MIC measurement in this test example, clinical bacteria of MRSA (OM481 strain and OM584 strain) were supplied from Okayama University Hospital (Japan). An MRSA strain N315, a vancomycin intermediate-resistant Staphylococcus aureus (VISA) strain Mu50, and a methicillin-sensitive Staphylococcus aureus (MSSA) strain FDA 209P were used as controls. Vancomycin-resistant enterococcus (VRE) strains NCTC 12201 and FN-1 were supplied from the National Institute of Infectious Disease (Japan).

VISA Mu50 = experiment: as above; format: cell-based, Staphylococcus aureus; conditions: Staphylococcus aureus; VISA Mu50; Mueller-Hinton broth, 35° C., 24 hours; read-out: MIC VISA Mu50
Experimental: as §3, §4

MSSA FDA 209P = experiment: as above; format: cell-based, Staphylococcus aureus; conditions: Staphylococcus aureus; MSSA FDA 209P; Mueller-Hinton broth, 35° C., 24 hours; read-out: MIC MSS 209P
Experimental: as §3, §4

MRSA N315 = experiment: as above; format: cell-based, Staphylococcus aureus; conditions: Staphylococcus aureus; MRSA N315; Mueller-Hinton broth, 35° C., 24 hours; read-out: MIC MRSA N315
Experimental: as §3, §4

MRSA OM481 = experiment: as above; format: cell-based, Staphylococcus aureus; conditions: Staphylococcus aureus; MRSA OM481; Mueller-Hinton broth, 35° C., 24 hours; read-out: MIC MRSA OM481
Experimental: as §3, §4

T1 sequence (P20083 whole entry): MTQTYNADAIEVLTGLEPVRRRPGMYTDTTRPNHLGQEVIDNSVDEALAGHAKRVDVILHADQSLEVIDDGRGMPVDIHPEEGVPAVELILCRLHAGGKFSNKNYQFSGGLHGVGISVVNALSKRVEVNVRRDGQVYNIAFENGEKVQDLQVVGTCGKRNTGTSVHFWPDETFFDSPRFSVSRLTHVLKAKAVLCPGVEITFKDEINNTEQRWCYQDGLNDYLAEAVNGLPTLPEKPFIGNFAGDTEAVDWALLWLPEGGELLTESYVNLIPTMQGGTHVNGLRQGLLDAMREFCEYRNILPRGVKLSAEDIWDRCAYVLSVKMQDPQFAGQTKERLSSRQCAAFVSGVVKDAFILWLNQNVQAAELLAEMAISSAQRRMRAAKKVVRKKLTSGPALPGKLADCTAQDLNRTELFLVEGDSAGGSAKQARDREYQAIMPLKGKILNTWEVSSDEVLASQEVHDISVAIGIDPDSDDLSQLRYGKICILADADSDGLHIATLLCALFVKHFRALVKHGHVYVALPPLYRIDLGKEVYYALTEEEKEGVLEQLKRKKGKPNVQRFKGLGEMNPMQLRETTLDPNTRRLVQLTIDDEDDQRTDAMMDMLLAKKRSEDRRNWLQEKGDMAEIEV
T1 sequence (P0AFI2 whole entry): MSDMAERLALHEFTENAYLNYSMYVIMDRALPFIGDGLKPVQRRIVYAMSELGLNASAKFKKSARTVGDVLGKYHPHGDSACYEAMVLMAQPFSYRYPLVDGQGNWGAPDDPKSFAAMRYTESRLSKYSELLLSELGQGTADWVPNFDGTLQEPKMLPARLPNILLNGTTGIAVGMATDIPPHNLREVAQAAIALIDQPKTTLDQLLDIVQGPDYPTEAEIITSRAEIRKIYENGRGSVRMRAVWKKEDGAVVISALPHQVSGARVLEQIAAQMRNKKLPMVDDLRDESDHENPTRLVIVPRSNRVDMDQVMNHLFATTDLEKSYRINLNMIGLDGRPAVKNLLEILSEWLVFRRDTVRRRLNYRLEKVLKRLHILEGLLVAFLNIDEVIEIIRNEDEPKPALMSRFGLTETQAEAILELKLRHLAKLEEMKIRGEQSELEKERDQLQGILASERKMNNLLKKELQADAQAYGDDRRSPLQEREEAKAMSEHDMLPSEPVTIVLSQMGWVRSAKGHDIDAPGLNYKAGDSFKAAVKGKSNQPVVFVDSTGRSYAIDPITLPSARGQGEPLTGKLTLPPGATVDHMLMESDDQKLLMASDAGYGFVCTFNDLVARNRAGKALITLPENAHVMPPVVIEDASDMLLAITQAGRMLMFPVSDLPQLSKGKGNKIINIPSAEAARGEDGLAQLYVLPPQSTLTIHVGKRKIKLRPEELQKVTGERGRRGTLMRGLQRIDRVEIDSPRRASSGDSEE
T2 sequence (P0AES4 whole entry, one chain of several): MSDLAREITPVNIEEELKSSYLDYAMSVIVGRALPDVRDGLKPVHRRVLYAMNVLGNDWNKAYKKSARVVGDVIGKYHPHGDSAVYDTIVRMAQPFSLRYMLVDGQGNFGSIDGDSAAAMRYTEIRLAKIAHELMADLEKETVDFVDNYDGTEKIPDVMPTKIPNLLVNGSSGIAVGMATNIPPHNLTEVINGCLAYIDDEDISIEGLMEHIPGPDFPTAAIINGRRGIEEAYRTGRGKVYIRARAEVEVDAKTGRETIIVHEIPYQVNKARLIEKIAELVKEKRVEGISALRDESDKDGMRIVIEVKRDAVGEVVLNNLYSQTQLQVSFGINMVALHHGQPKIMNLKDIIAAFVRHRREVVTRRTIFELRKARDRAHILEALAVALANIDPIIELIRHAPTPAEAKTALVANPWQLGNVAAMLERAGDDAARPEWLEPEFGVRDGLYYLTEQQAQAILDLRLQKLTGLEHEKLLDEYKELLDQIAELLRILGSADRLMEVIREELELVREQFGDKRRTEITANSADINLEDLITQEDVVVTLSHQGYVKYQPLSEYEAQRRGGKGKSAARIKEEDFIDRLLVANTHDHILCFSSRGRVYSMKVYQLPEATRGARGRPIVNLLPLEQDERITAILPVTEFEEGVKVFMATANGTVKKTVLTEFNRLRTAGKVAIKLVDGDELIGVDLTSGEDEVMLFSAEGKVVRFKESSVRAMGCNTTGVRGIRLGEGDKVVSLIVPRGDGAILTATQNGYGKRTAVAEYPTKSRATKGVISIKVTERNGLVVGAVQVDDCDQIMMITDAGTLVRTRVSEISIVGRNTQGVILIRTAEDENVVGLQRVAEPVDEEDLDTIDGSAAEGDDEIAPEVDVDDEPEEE

O=c1c(O)c(-c2ccc(O)c(O)c2)oc2cc(O)cc(O)c12 [Quercetin, quercetin, reference compound]
pIC50 [1]: 5.35
MIC (Escherichia coli K-12): 64 µg/mL (≈ 212 µM)
MIC [2]: > 128 µg/mL
MIC [3]: > 128 µg/mL
MIC [4]: > 128 µg/mL
MIC [5]: > 128 µg/mL
pIC50 (E. coli DNA gyrase): 6.85
MIC (MRSA OM58): > 128 µg/mL
MIC (VISA Mu50): > 128 µg/mL
MIC (MSSA FDA 209P): > 128 µg/mL
MIC (MRSA N315): > 128 µg/mL
MIC (MRSA OM481): > 128 µg/mL
